Results: patent publication US20250108048A1, “STING AGONIST COMPOUNDS AND CONJUGATES” (SUTRO BIOPHARMA, INC., priority 2023, published 2025)

Key:
[1] = molecular target: hSTING H232 (Homo sapiens, UniProt Q86WV6); test: THP1-Dual KI-hSTING-H232 reporter assay (IRF pathway, secreted Lucia luciferase); format: cell-based; set-up: host or cells: THP1-Dual KI-hSTING-H232 (from THP1-Dual KO-STING); conditions: THP1-Dual KI-hSTING-H232 cells, 24 hours; read-out: Reporter assay EC50 (nM) THP-1-H232
[2] = molecular target: hSTING AQ (Homo sapiens, UniProt Q86WV6, G230A/H232R/R293Q); test: Surface plasmon resonance, hSTING AQ; format: binding; conditions: read-out: hSTING AQ SPR (Kd)
Chain of hSTING AQ (Q86WV6 whole entry G230A/H232R/R293Q): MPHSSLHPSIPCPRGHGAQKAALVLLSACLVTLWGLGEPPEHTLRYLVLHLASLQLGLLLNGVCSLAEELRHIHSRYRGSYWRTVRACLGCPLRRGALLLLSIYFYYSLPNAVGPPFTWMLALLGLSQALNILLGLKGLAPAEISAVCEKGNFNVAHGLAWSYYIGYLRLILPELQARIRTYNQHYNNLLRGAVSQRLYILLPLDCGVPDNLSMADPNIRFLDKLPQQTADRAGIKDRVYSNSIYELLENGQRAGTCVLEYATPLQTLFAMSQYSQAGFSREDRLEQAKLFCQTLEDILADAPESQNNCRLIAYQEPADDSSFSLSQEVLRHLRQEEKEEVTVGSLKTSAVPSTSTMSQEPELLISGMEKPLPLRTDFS

[3] = system: NCI-H292 cells; test: Immunogenic cell death markers (HMGB1 release, surface calreticulin); format: cell-based, human; conditions: 48 hours
Description: Immunogenic cell death elicited by the TROP2 ADC, iSAC, and exatecan were measured by cell surface translocate of calreticulin and release of HMGB1 in the cell culture supernatant. Briefly, TROP2 positive cell line NCI-H292 were seeded into a 96-well flat bottom plate 4 hours prior to the initialization of the assay. Test articles were formulated at a 2× starting concentration in cell culture medium, and samples were serial diluted (1:3) under sterile conditions and added onto the cells in duplicates. After incubation at 37° C. in a CO2 incubator for 48 hours, the cell supernatant was collected for measuring HMGB1 and the adherent cells were collected for calreticulin expression on the cell surface.
HMGB1 released in the supernatant was assessed via sandwich ELISA using mouse anti-human HMGB1 clone 2F6 (Sigma-Aldrich) as the capture, polyclonal rabbit anti-human HMGB1 (Abcam) as secondary, and polyclonal goat anti-rabbit IgG HRP as the detection antibody. The HMGB1 concentrations in the cell culture medium were calculated based a standard curve built on commercially available recombinant human HMGB1 (R&D Systems).
NCI-H292 cells were detached using Accutase (Innovative Cell Technologies) and viability was accessed using a 1:500 dilution of Zombie NIR viability dye. […] Surface calreticulin measures on the live cells were gathered using an Attune NXT Flow Cytometer (ThermoFisher Scientific) to obtain median fluorescence intensity values. All data were fitted with non-linear regression analysis, using log(agonist) vs. response, variable slope, 4 parameter fit equation using GraphPad Prism.

Chain of hSTING H232 (Q86WV6 whole entry): as the sequence (Q86WV6 whole entry G230A/H232R/R293Q) above, with A230G, R232H, Q293R counted along it

EC50 [1]: > 150 nM
Kd [2]: ≤ 20 nM
Compound: CCn1nc(C)cc1C(=O)Nc1nc2cc(C(N)=O)cc(OC)c2n1C/C=C/Cn1c(NC(=O)c2cc(C)nn2CC)nc2cc(C(N)=O)cc(OCCCN3CCC(c4nnc5n4CCNC5)CC3)c21 [Compound 4, 1-[(E)-4-[5-carbamoyl-2-[(2-ethyl-5-methyl-pyrazole-3-carbonyl)amino]-7-[3-[4-(5,6,7,8-tetrahydro-[1,2,4]triazolo[4,3-a]pyrazin-3-yl)-1-piperidyl]propoxy]benzimidazol-1-yl]but-2-enyl]-2-[(2-ethyl-5-methyl-pyrazole-3-carbonyl)amino]-7-methoxy-benzimidazole-5-carboxamide; 2,2,2-trifluoroacetic acid]
HMGB-1 Release Span [3]: 11 ng/mL
EC50 ([3]; Homo sapiens, sandwich ELISA, read-out: HMGB-1 Release EC50): 7.45 nM
